Source: paper PMC6234229, “The role of loops B and C in determining the potentiation of GABAA receptors by midazolam” (Pharmacology Research & Perspectives, 2018)
Several values for one entry are separate records, joined by “and”; a condition that tells them apart may be missing. Equal values may be shown once. Read-outs that look alike come from different tables or passages of the source.

What was measured:
[1] = molecular target: T1, α1(S206I)β2γ2 GABAA receptor (Homo sapiens, UniProt P14867+P18507+P47870, S233I); assay: GABA concentration-response assay, whole-cell patch clamp, HEK293T; format: cell-based; settings: GABA Hill fit
T1 construct: expressed in transfected cells; host or cells: HEK293T
Source text: (§1) Human (Homo sapiens) GABAA subunits (α1‐6, β2, γ2s) were subcloned into pcDNA3.1+ vectors with a cytomegalovirus (CMV) promoter. The hβ2 and hα3 sequences were humanized rat (Rattus norvegicus) cDNA with amino acid substitutions made to match the human protein sequence. The α1‐3, α5, β2, and γ2s subunits were a generous gift from Neil L. Harrison (Columbia University Medical Center, NY). The α4 subunit was obtained from GenScript (Piscataway, NJ), and the α6 subunit was a generous gift from Robert L. McDonald (Vanderbilt University, TN). All point mutations (listed in Figure 1C) were introduced using the QuikChange Lightening site‐directed mutagenesis kit (Agilent Technologies, Santa Clara, CA) according to the manufacturer's instructions and were confirmed by sequencing (Eurofins MWG Operon, Louisville, KY).
(§2) Human embryonic kidney cells containing the SV40 T‐antigen (HEK293T) were acquired from American Type Culture Collection (ATCC®, Manassas, VA), catalogue number, CRL3216. HEK293T cells were maintained at 37°C and 5% CO2 in Eagle Minimum Essential Medium (MEM) supplemented with 5% fetal bovine serum (Atlanta Biologicals Inc., Flowery Branch, GA), 40 μM L‐glutamine, 100 U/mL penicillin and 0.1 mM streptomycin. Cells were passaged regularly when they reached 70% confluency using trypsin. Cells were not passaged more than 22 times. New cells were revived from frozen stocks at passage 2‐4. Cells used for in vitro electrophysiology experiments were grown on poly‐D‐lysine‐coated glass coverslips (No.2, VWR, Radnor, PA) and transfected with X‐tremeGENE (Roche Diagnostics, Indianapolis, IN) with the desired receptor subunit cDNAs at a 1:1:1 ratio to express αxβ2γ2s receptors (2 μg total cDNA) and with 0.5 μg green fluorescent protein (GFP) as an expression marker. The γ2s incorporation into receptors was tested with zinc inhibition assays regularly.24 Patch clamp experiments were performed on cells at 24‐72 hours post‐transfection. All experiments were performed at 22°C. Experiments consisted of at least five cells recorded per day from at least two transfections across 3‐4 days to control for cell health and transfection efficiency. At least three cells expressing wild‐type receptors were recorded on days that mutant receptors were tested to provide a time‐matched expression control. All reagents were purchased from Sigma‐Aldrich (St. Louis, MO) unless otherwise stated.
(§3) Extracellular solution contained 161 mM NaCl, 3 mM KCl, 1 mM MgCl2, 1.5 mM CaCl2, 10 mM HEPES, and 6 mM D‐glucose, adjusted to pH 7.4 with NaOH (320‐330 mOsm). […] The perfusion system was controlled by protocols written in pClamp 9 (Molecular Devices, LLC., Sunnyvale, CA). Whole‐cell currents were recorded at ‐60 mV, filtered at 100 Hz and sampled at 200 Hz with a MultiClamp 700B amplifier (Molecular Devices, LLC) and DigiData 1322A (Molecular Devices, LLC) digitizer. […] Cells were recorded with the midazolam protocol no more than two times to avoid desensitization and incomplete washout or irreversible modulation.
(§4) Recordings were analyzed using MATLAB (Math Works, Inc., Natick, MA). […] The maximum peak current, EC50 and Hill coefficient were estimated for assays from each cell. When Hill parameters are estimated from whole‐cell recordings, the changes in the parameters across receptor conditions can be ascribed to the following changes in receptor physiology. Changes in maximum current can be due to changes in the single‐channel conductance or the rate of desensitization. Changes in cell surface receptor expression can cause minor changes in maximum current, but are unlikely to occur in the time course of our experimental protocol. […] More often minor changes in the Hill coefficient are attributed to the altered homogeneity in the receptor population expressed by the HEK293T cell. For example, a shallower Hill coefficient could be caused by a shift in the population of receptors from mostly αβγ receptors to a combination of both αβ and αβγ receptors.

[2] = molecular target: T2, α1(H102R)β2γ2 GABAA receptor (Homo sapiens, UniProt P14867+P18507+P47870, H129R); assay: as above; format: cell-based; settings: GABA Hill fit
T2 construct: expressed in transfected cells; host or cells: HEK293T
Source text: as §1, §2, §3, §4

[3] = molecular target: T3, α2β2γ2 GABAA receptor (Homo sapiens, UniProt P18507+P47869+P47870); assay: as above; format: cell-based; settings: GABA Hill fit
T3 construct: expressed in transfected cells; host or cells: HEK293T
Source text: as §1, §2, §3, §4

[4] = molecular target: T4, α3(S230I)β2γ2 GABAA receptor (Homo sapiens, UniProt P18507+P34903+P47870, S258I); assay: as above; format: cell-based; settings: GABA Hill fit
T4 construct: expressed in transfected cells; host or cells: HEK293T
Source text: as §1, §2, §3, §4

[5] = molecular target: T5, α4(R100H)β2γ2 GABAA receptor (Homo sapiens, UniProt P18507+P47870+P48169, R135H); assay: as above; format: cell-based; settings: GABA Hill fit
T5 construct: expressed in transfected cells; host or cells: HEK293T
Source text: as §1, §2, §3, §4

[6] = molecular target: T6, α5(S209I)β2γ2 GABAA receptor (Homo sapiens, UniProt P18507+P31644+P47870, S240I); assay: as above; format: cell-based; settings: GABA Hill fit
T6 construct: expressed in transfected cells; host or cells: HEK293T
Source text: as §1, §2, §3, §4

[7] = molecular target: T7, α1β2γ2 GABAA receptor (Homo sapiens, UniProt P14867+P18507+P47870); assay: as above; format: cell-based; settings: GABA Hill fit
T7 construct: expressed in transfected cells; host or cells: HEK293T
T7 sequence (P14867 28-456): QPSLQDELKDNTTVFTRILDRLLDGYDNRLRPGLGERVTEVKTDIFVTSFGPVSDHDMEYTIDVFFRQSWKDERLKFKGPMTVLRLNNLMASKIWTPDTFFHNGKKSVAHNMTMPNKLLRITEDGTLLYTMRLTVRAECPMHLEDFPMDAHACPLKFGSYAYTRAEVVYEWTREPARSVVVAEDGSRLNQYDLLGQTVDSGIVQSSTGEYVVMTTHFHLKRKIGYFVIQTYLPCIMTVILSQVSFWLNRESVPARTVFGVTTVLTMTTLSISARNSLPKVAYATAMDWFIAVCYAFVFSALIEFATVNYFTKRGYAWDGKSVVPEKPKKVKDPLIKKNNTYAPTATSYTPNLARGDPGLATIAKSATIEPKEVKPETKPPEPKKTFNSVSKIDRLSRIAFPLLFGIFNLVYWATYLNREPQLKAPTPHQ
T7 sequence (P47870 26-474 isoform P47870-1 limits assumed): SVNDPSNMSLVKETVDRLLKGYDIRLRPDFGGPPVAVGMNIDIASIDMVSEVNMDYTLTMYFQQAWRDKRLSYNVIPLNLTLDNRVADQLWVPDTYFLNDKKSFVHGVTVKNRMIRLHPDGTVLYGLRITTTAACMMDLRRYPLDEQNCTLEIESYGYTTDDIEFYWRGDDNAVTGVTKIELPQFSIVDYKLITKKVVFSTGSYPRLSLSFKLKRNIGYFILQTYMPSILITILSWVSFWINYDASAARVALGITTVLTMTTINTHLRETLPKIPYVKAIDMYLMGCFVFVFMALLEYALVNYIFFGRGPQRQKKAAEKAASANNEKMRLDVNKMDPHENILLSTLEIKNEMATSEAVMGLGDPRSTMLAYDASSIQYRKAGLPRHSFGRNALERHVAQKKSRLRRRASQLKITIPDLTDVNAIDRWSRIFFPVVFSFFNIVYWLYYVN
T7 sequence (P18507 40-467 isoform P18507-1 limits assumed): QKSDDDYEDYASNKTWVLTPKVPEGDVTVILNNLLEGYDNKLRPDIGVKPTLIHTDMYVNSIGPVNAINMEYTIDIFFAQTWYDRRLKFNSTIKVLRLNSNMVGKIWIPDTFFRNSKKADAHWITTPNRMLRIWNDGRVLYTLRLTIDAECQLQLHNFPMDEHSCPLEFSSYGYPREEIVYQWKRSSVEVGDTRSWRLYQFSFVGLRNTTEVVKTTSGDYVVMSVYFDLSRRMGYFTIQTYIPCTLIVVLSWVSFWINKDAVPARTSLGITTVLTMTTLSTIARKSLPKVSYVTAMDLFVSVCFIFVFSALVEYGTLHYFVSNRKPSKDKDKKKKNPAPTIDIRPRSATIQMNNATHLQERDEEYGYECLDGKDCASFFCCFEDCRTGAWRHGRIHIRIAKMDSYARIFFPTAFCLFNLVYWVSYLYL
Source text: as §1, §2, §3, §4

[8] = molecular target: α6(P161T)β2γ2 GABAA receptor (Homo sapiens, UniProt P18507+P47870+Q16445, P180T); assay: Midazolam potentiation of EC10 GABA currents, whole-cell patch clamp, HEK293T; format: cell-based; set-up: expressed in transfected cells; host or cells: HEK293T; settings: for Midazolam potentiation (%): α6(P161T)
α6(P161T)β2γ2 GABAA receptor, sequence (Q16445 20-453 P180T): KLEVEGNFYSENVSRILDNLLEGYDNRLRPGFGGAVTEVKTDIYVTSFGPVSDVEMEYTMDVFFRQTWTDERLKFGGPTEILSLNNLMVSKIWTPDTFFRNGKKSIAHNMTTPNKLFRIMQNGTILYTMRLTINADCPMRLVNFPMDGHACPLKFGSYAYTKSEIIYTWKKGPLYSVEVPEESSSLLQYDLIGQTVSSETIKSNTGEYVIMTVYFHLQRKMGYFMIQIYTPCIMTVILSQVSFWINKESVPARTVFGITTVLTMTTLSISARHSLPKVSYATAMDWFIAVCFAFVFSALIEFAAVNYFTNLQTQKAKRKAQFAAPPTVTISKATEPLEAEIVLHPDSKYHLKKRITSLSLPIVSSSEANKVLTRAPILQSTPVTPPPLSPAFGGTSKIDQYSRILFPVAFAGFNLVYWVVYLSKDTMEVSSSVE
α6(P161T)β2γ2 GABAA receptor, sequence (P47870 26-474 isoform P47870-1 limits assumed, stated change not applied): as the sequence (P47870 26-474 isoform P47870-1 limits assumed) above
α6(P161T)β2γ2 GABAA receptor, sequence (P18507 40-467 isoform P18507-1 limits assumed, stated change not applied): as the sequence (P18507 40-467 isoform P18507-1 limits assumed) above
Source text: as §1, §2, §3, §4

[9] = molecular target: α6(R100H)β2γ2 GABAA receptor (Homo sapiens, UniProt P18507+P47870+Q16445, R119H); assay: as above; format: cell-based; set-up: expressed in transfected cells; host or cells: HEK293T
α6(R100H)β2γ2 GABAA receptor, sequence (Q16445 20-453 R119H): as the sequence (Q16445 20-453 P180T) above, with R100H, T161P counted along it
α6(R100H)β2γ2 GABAA receptor, sequence (P47870 26-474 isoform P47870-1 limits assumed, stated change not applied): as the sequence (P47870 26-474 isoform P47870-1 limits assumed) above
α6(R100H)β2γ2 GABAA receptor, sequence (P18507 40-467 isoform P18507-1 limits assumed, stated change not applied): as the sequence (P18507 40-467 isoform P18507-1 limits assumed) above
Source text: as §1, §2, §3, §4

[10] = cited from earlier work

NCCCC(=O)O [GABA, γ‐aminobutyric acid]
Hill coefficient [1]: 1.444 ± 0.104
Max Current (pA) [1]: -5007 ± 470.7 pA
Hill coefficient [2]: 1.255 ± 0.097
Max Current (pA) [2]: -3175 ± 444.3 pA
Hill coefficient [3]: 1.581 ± 0.074
Max Current (pA) [3]: -3326 ± 356.7 pA
Hill coefficient [4]: 1.796
Max Current (pA) [4]: -1724 ± 286.1 pA
Hill coefficient [5]: 1.215 ± 0.079
Max Current (pA) [5]: -3049 ± 378.6 pA
Hill coefficient [6]: 1.434 ± 0.059
Max Current (pA) [6]: -6073 ± 742.0 pA
Hill coefficient [7]: 1.400 ± 0.102
Max Current (pA) [7]: -4218 ± 601.6 pA

Cc1ncc2n1-c1ccc(Cl)cc1C(c1ccccc1F)=NC2 [midazolam]
Midazolam potentiation (%) ([8]; 10 nM MDZ + EC10 GABA): 7.52 ± 3.56%
Midazolam potentiation (%) ([8]; 50 nM MDZ + EC10 GABA): 13.89 ± 3.99%
Midazolam potentiation (%) ([8]; 100 nM MDZ + EC10 GABA): 24.46 ± 3.86%
Midazolam potentiation (%) ([8]; 500 nM MDZ + EC10 GABA): 17.25 ± 3.52%
Midazolam potentiation (%) ([8]; 1000 nM MDZ + EC10 GABA): 16.98 ± 4.08%
responsiveness to midazolam potentiation ([8]; α6(P161T)β2γ2): failed to confer midazolam responsiveness
EC50 [9]: 41.9 ± 6.02 nM
Midazolam potentiation (%) ([9]; 10 nM MDZ + EC10 GABA, α6(R100H)): 14.39 ± 8.03%
Midazolam potentiation (%) ([9]; 50 nM MDZ + EC10 GABA, α6(R100H)): 45.91 ± 12.95%
Midazolam potentiation (%) ([9]; 100 nM MDZ + EC10 GABA, α6(R100H)): 71.31 ± 17.31%
Midazolam potentiation (%) ([9]; 500 nM MDZ + EC10 GABA, α6(R100H)): 85.96 ± 19.92%
Midazolam potentiation (%) ([9]; 1000 nM MDZ + EC10 GABA, α6(R100H)): 79.13 ± 19.87%
Max potentiation (%) ([9]; α6(R100H), Hill fit, midazolam 10-1000 nM + EC10 GABA): 93.27 ± 22.84%
Hill coefficient ([9]; α6(R100H), midazolam Hill fit): 2.310 ± 0.56
therapeutically relevant range of midazolam measured from plasma ([10]; anesthetized state): 350 ng/mL and 966 nM
therapeutically relevant range of midazolam measured from plasma ([10]; postoperative drowsiness): 75 ng/mL and 207 nM
